# Data taken from patent US20050250677A1, “Glycopeptide antibiotic derivatives” (priority 2002, published 2005).
# Where two headings read alike, the source gives them in different places.
# Experiments:
# [1] = system: HIV-1 (IIIB); assay: Inhibition of HIV-1 (IIIB)-induced cytopathicity (giant cell formation) in CEM cells; format: cell-based
# Experimental: (§1) A variety of glycopeptide antibiotic derivatives of vancomycin, eremomycin and teicoplanin including their aglycon derivatives were evaluated for their inhibitory activity against HIV-1 (IIIB) and HIV-2(ROD) in CEM cell cultures.
# [2] = system: HIV-2(ROD); assay: Inhibition of HIV-2 (ROD)-induced cytopathicity (giant cell formation) in CEM cells; format: cell-based; conditions: read-out: EC50 HIV-2 (concentration required to inhibit HIV-induced giant cell formation by 50%); HIV-2, CEM cell cultures
# Experimental: as §1
# [3] = system: HIV; assay: Selection of resistant HIV strains in cell culture; format: cell-based; conditions: ≧9 weeks of attempts in cell culture
# [4] = system: human lymphocyte CEM; assay: Cytostatic activity assay, CEM cells; format: cell-based; conditions: read-out: IC50 CEM (compound concentration required to inhibit tumor cell proliferation by 50%)
# [5] = system: murine leukemia L1210; assay: Cytostatic activity assay, L1210 cells; format: cell-based; conditions: read-out: IC50 L1210 (compound concentration required to inhibit tumor cell proliferation by 50%)
# [6] = system: human lymphocyte Molt4/clone 8; assay: Cytostatic activity assay, Molt4/clone 8 cells; format: cell-based; conditions: read-out: IC50 Molt4/C8 (compound concentration required to inhibit tumor cell proliferation by 50%)
# [7] = system: HIV-1(HE); assay: Inhibition of HIV-1 (HE)-induced cytopathicity in MOLT4/C8 cells; format: cell-based
# [8] = system: HIV-2 (EHO); conditions: read-out: EC50 CEM/0 HIV-2 (EHO); CEM/0 cells
# Experimental: (§2) Inhibition of HIV-1 (IIIB, HE, HN) and HIV-2(ROD, EHO, RF)-induced cytopathicity in CEM or C8166 or Molt4/C8 cells was measured in microtiter 96-well plates containing ˜3×10^5 CEM cells/ml, infected with 100 CCID50 of HIV per ml and containing appropriate dilutions of the test compounds. After 4 to 5 days of incubation at 37° C. in a CO2-controlled humidified atmosphere, CEM, C8166 or Molt4/C8 giant (syncytium) cell formation was examined microscopically.
# [9] = system: HIV-2 (RF); conditions: read-out: EC50 CEM/0 HIV-2 (RF); CEM/0 cells
# Experimental: as §2
# [10] = system: HIV-1 (HE); assay: Inhibition of HIV-1 (HE)-induced cytopathicity in CEM/0 cells; format: cell-based
# [11] = system: mutant HIV-1 strain Leu-100-Ile; assay: Anti-HIV-1 activity against mutant HIV-1 strain Leu-100-Ile in CEM cultures; format: cell-based
# [12] = system: Vero cells; conditions: read-out: CC50 Vero
# [13] = system: mutant HIV-1 strain Tyr-188-His; assay: Anti-HIV-1 activity against mutant HIV-1 strain Tyr-188-His in CEM cultures; format: cell-based
# Experimental: as §2
# [14] = system: mutant HIV-1 strain Tyr-181-Cys; assay: Anti-HIV-1 activity against mutant HIV-1 strain Tyr-181-Cys in CEM cultures; format: cell-based
# [15] = system: mutant HIV-1 strain Lys-103-Asn; assay: Anti-HIV-1 activity against mutant HIV-1 strain Lys-103-Asn in CEM cultures; format: cell-based
# [16] = system: HIV-1 (MN); assay: Inhibition of HIV-1 (MN)-induced cytopathicity in CEM/0 cells; format: cell-based
# [17] = system: SARS virus (strain Frankfurt-1); assay: microbe, parasite or virus in culture; format: cell-based, human corona (SARS) virus; conditions: SARS virus in Vero cells; read-out: EC50 SARS virus
# [18] = system: FCV; assay: Feline corona virus assay in Feline Crandel kidney cells (MTS); format: cell-based; conditions: FCV in FCK cells; read-out: EC50 FCV
# Experimental: Feline Crandel kidney cells were seeded in 96-well microtiter plates at 24,000 cells/well. Then, 24 hrs later, an appropriate inoculum of FCV is added together with 5-fold dilutions of the test compounds. After 4 days, a MTS/PMS solution was added to each well. Following a 90 min incubation period at 37° C., the optical density of the wells was read at 498 nm in a microplate reader.
# [19] = system: HIV-1 (IIIB); assay: Inhibition of HIV-1 (IIIB)-induced cytopathicity in C8166 cells; format: cell-based
# [20] = system: FCK cells; conditions: read-out: CC50 FCK; FCK cells
# [21] = system: CMV; assay: Anti-CMV assay: virus-induced cytopathicity in HEL cell cultures
# [22] = system: HEL cells; conditions: read-out: CC50 (HEL), HEL cells
# [23] = system: VZV (wild-type strains); assay: Anti-VZV assay (wild-type strains): virus-induced cytopathicity in HEL cell cultures; format: cell-based, varicella-zoster virus; conditions: HEL cell cultures
# [24] = system: HEL cells
# [25] = read-out: EC50 HIV-1 (concentration required to inhibit HIV-induced giant cell formation by 50%), HIV-1, CEM cell cultures
# [26] = CEM cultures, wild type in mutant panel, read-out: EC50 HIV-1 IIIB
# [27] = CEM/0 cells, read-out: EC50 CEM/0 HIV-1 (IIIB)
# [28] = VZV strain OKA, read-out: EC50 VZV (OKA)
Structure (SMILES),"EC50 [1, 25]",EC50 [2],IC50 [4],IC50 [5],IC50 [6],"EC50 [1, 26]","EC50 [1, 27]",EC50 [7],EC50 [8],EC50 [9],EC50 [10],EC50 [11],CC50 [12],EC50 [13],EC50 [14],EC50 [15],EC50 [16],EC50 [17],EC50 [18],CC50 [20],also measured
CCCCCCCCCCNCc1c(O)cc2c(c1O)-c1cc(ccc1O)C1NC(=O)C3NC(=O)C4NC(=O)C(Cc5ccc(c(Cl)c5)Oc5cc3cc(c5O)Oc3ccc(cc3Cl)C(O)C(NC1=O)C(=O)NC2C(=O)NCCCN(C)C)NC(=O)C(N)c1ccc(O)c(c1)Oc1cc(O)cc4c1 (stereo not shown) [Compound 15],1.4 ± 0.6 µM,6 ± 3.9 µM,> 100 µM,48 ± 8 µM,> 100 µM,,,,,,,,,,,,,,,,selection of resistant virus strains [3]: failed
CN(C)CCCNC(=O)C1NC(=O)C2NC(=O)C(NC(=O)C3NC(=O)C4NC(=O)C(Cc5ccc(c(Cl)c5)Oc5cc3cc(c5O)Oc3ccc(cc3Cl)C2O)NC(=O)C(N)c2ccc(O)c(c2)Oc2cc(O)cc4c2)c2ccc(O)c(c2)-c2c1cc(O)c(CNC1C3CC4CC(C3)CC1C4)c2O (stereo not shown) [Compound 19],2.5 ± 0.7 µM,8 ± 2.8 µM,> 500 µM,> 500 µM,> 500 µM,6 ± 1.4 µM,6 ± 1.4 µM,9 ± 1.4 µM,15 µM,9.5 ± 3.5 µM,12 µM,11.5 ± 2.1 µM,> 100 µM,11 ± 1.4 µM,7.5 ± 3.5 µM,8.5 ± 2.1 µM,13 ± 2.1 µM,23 µM,18 µM,> 50 µM,selection of resistant virus strains [3]: failed; EC50 [19]: 9.5 ± 3.5 µM
CCCCc1ccc(CN2CCN(Cc3c(O)cc4c(c3O)-c3cc(ccc3O)C3NC(=O)C5NC(=O)C6NC(=O)C(Cc7ccc(c(Cl)c7)Oc7cc5cc(c7O)Oc5ccc(cc5Cl)C(O)C(NC3=O)C(=O)NC4C(=O)NCCCN(C)C)NC(=O)C(N)c3ccc(O)c(c3)Oc3cc(O)cc6c3)CC2)cc1 (stereo not shown) [Compound 30],3 µM,5 ± 1.4 µM,> 500 µM,29 ± 7 µM,108 ± 79 µM,2.8 ± 0.4 µM,2.8 ± 0.4 µM,4.5 ± 0.7 µM,11 ± 1.4 µM,3.7 ± 1.25 µM,5.5 ± 0.7 µM,6 ± 1.4 µM,> 100 µM,7.5 ± 0.7 µM,,,7 µM,33 µM,9.2 µM,≥ 50 µM,EC50 [19]: ≥ 5 µM
CCCCc1ccc(CN2CCN(Cc3c(O)cc4c(c3O)-c3cc(ccc3O)C3NC(=O)C5NC(=O)C6NC(=O)C(Cc7ccc(c(Cl)c7)Oc7cc5cc(c7O)Oc5ccc(cc5Cl)C(O)C(NC3=O)C(=O)NC4C(=O)NC)NC(=O)C(N)c3ccc(O)c(c3)Oc3cc(O)cc6c3)CC2)cc1 (stereo not shown) [Compound 31],1.7 ± 0.42 µM,3 ± 1.4 µM,> 500 µM,61 ± 10 µM,> 500 µM,2.8 ± 0.4 µM,2.8 ± 0.4 µM,3.7 ± 0.35 µM,6.8 ± 0.35 µM,3.7 ± 1.77 µM,9.5 ± 3.5 µM,5.3 ± 2.5 µM,> 100 µM,6 ± 1.4 µM,8.5 ± 2.1 µM,6 ± 1.4 µM,6.5 ± 0.7 µM,24 µM,> 100 µM,≥ 20 µM,"anti-CMV activity [21]: anti-CMV activity; EC50 ([21]; read-out: EC50 CMV AD-169, CMV strain AD-169, HEL cell cultures): ≥ 20 µM; EC50 ([21]; read-out: EC50 CMV Davis, CMV strain Davis, HEL cell cultures): 10 µM; CC50 ([22]; anti-CMV table): > 200 µM; CC50 ([22]; anti-VZV table): > 200 µM; EC50 [23, 28]: 0.75 µM; EC50 ([23]; VZV strain YS, read-out: EC50 VZV (YS)): 0.85 µM; MTC (HEL) ([24]; anti-CMV table): 20 to 50 µM; MTC (HEL) ([24]; anti-VZV table): 20 to 50 µM; EC50 [19]: 6.6 ± 3.06 µM"
CCCCc1ccc(CNCC(=O)N2CCN(C(=O)C3NC(=O)C4NC(=O)C(NC(=O)C5NC(=O)C6NC(=O)C(Cc7ccc(c(Cl)c7)Oc7cc5cc(c7O)Oc5ccc(cc5Cl)C4O)NC(=O)C(N)c4ccc(O)c(c4)Oc4cc(O)cc6c4)c4ccc(O)c(c4)-c4c(O)cc(O)cc43)CC2)cc1 (stereo not shown) [Compound 46],4 µM,7 ± 4.2 µM,> 100 µM,> 100 µM,> 100 µM,4 µM,4 µM,6.5 ± 4.3 µM,35 ± 7.1 µM,10 µM,35 ± 7.1 µM,,,,8 µM,17 ± 4.2 µM,9 ± 1.4 µM,,,,"CC50 ([22]; anti-VZV table): > 50 µM; EC50 [23, 28]: 0.81 µM; MTC (HEL) ([24]; anti-VZV table): 20 to 80 µM"
CNC(=O)C1NC(=O)C2NC(=O)C(NC(=O)C3NC(=O)C4NC(=O)C(Cc5ccc(c(Cl)c5)Oc5cc3cc(c5O)Oc3ccc(cc3Cl)C2O)NC(=O)C(N)c2ccc(O)c(c2)Oc2cc(O)cc4c2)c2ccc(O)c(c2)-c2c1cc(O)c(CNC1C3CC4CC(C3)CC1C4)c2O (stereo not shown) [Compound 51],5 ± 1.4 µM,17 ± 3.5 µM,> 250 µM,212 ± 54 µM,> 250 µM,5 ± 1.4 µM,5 ± 1.4 µM,25 ± 5 µM,13 ± 6.6 µM,9 ± 4.2 µM,40 µM,24 ± 6.3 µM,> 100 µM,11 ± 6.4 µM,9.5 ± 2.1 µM,12 µM,25 ± 7.1 µM,39 µM,15 µM,≥ 100 µM,
"Cc1ccnc2c1NC(=O)c1cccnc1N2C1CC1 [nevirapine, reference compound]",,,,,,,,,,,,,,,,,,,,,selection of resistant virus strains [3]: easily resulted in the emergence
